# Laboratory results from patent US20260232767A1, “INTERLEUKIN-23 RECEPTOR ANTAGONIST PEPTIDES FOR USE IN THE TREATMENT OF PSORIASIS” (Janssen Pharmaceutica NV, priority 2023, published 2026).
# Test system: subjects with moderate-to-severe plaque psoriasis
# Test: IGA score, Example 2
# Type: in vivo, human
# Excerpt: Described below is a multicenter, long-term extension (LTE), double-blind, dose-ranging, parallel group interventional study in participants from Example 1 to evaluate the long-term efficacy and safety of the hydrochloride salt of the compound of Formula (I) for the treatment of moderate-to-severe plaque psoriasis. Patients from Example 1 continued to receive the same dose of the compound of Formula (I) for an additional 36-week treatment period with a 4-week safety follow up period after the last administration of the compound of Formula (I). Patients randomized to placebo in Example 1 received the compound of Formula (I) at a dose of 100 mg QD starting at Week 16 of Example 1 (FIG. 21).
# Secondary endpoints included additional change from baseline of Example 1 in PASI, IGA, and PSSD at Week 52, including the proportions of subjects that achieved PAST 90, PAST 100, an IGA score of cleared (0) or minimal (1), PSSD symptoms score=0, and PSSD signs score=0.
# [1] = Week 20, Placebo → 100 mg QD, N=35
# [2] = Week 24, Placebo → 100 mg QD, N=35
# [3] = Week 28, Placebo → 100 mg QD, N=35
# [4] = Week 32, Placebo → 100 mg QD, N=35
# [5] = Week 40, Placebo → 100 mg QD, N=35
# [6] = Week 52, Placebo → 100 mg QD, N=35
structure (smiles),measurement,setting,value
"CC(=O)NCCCC[C@@H]1NC(=O)[C@H](Cc2c[nH]c3c(C)cccc23)NC(=O)[C@H]([C@@H](C)O)NC(=O)[C@H](CC(N)=O)NC(=O)[C@@H](NC(C)=O)C(C)(C)SSC(C)(C)[C@@H](C(=O)N[C@@H](Cc2ccc(OCCN)cc2)C(=O)N[C@@H](Cc2ccc3ccccc3c2)C(=O)NC2(C(=O)N[C@@H](CCC(=O)O)C(=O)N[C@@H](CC(N)=O)C(=O)N[C@@H](Cc3cccnc3)C(=O)N(C)CC(N)=O)CCOCC2)NC1=O [IL-23 receptor antagonist peptide, Ac-[Pen]*-N-T-[W(7-Me)]-[Lys(Ac)]-[Pen]*-Phe[4-(2-aminoethoxy)]-[2-Nal]-[THP]-E-N-[3-Pal]-Sarc-NH2 (*[Pen]-[Pen]* formdisulfidebond)]","IGA Score ≤2 (‘Mild’or better), subjects (%)","Week 20, 100 mg QD, N=43",(72.1%)
same,"IGA Score = 0 (‘Cleared’) or 1 (‘Minimal’), subjects (%)",[1],(28.6%)
same,"IGA Score = 0 (‘Cleared’), subjects (%)",[1],(5.7%)
same,"IGA Score ≤2 (‘Mild’or better), subjects (%)",[1],(71.4%)
same,"IGA Score = 0 (‘Cleared’) or 1 (‘Minimal’), subjects (%)","Week 24, 25 mg BID, N=41",(39.0%)
same,"IGA Score = 0 (‘Cleared’), subjects (%)","Week 24, 25 mg BID, N=41",(19.5%)
same,"IGA Score ≤2 (‘Mild’or better), subjects (%)","Week 24, 25 mg BID, N=41",(75.6%)
same,"IGA Score = 0 (‘Cleared’) or 1 (‘Minimal’), subjects (%)","Week 24, 25 mg QD, N=43",(37.2%)
same,"IGA Score = 0 (‘Cleared’), subjects (%)","Week 24, 25 mg QD, N=43",(16.3%)
same,"IGA Score ≤2 (‘Mild’or better), subjects (%)","Week 24, 25 mg QD, N=43",(67.4%)
same,"IGA Score = 0 (‘Cleared’) or 1 (‘Minimal’), subjects (%)","Week 24, 50 mg QD, N=43",(60.5%)
same,"IGA Score = 0 (‘Cleared’), subjects (%)","Week 24, 50 mg QD, N=43",(32.6%)
same,"IGA Score ≤2 (‘Mild’or better), subjects (%)","Week 24, 50 mg QD, N=43",(81.4%)
same,"IGA Score = 0 (‘Cleared’) or 1 (‘Minimal’), subjects (%)","Week 24, 100 mg BID, N=42",(73.8%)
same,"IGA Score = 0 (‘Cleared’), subjects (%)","Week 24, 100 mg BID, N=42",(38.1%)
same,"IGA Score ≤2 (‘Mild’or better), subjects (%)","Week 24, 100 mg BID, N=42",(78.6%)
same,"IGA Score = 0 (‘Cleared’) or 1 (‘Minimal’), subjects (%)","Week 24, 100 mg QD, N=43",(65.1%)
same,"IGA Score = 0 (‘Cleared’), subjects (%)","Week 24, 100 mg QD, N=43",(23.3%)
same,"IGA Score ≤2 (‘Mild’or better), subjects (%)","Week 24, 100 mg QD, N=43",(76.7%)
same,"IGA Score = 0 (‘Cleared’) or 1 (‘Minimal’), subjects (%)",[2],(54.3%)
same,"IGA Score = 0 (‘Cleared’), subjects (%)",[2],(14.3%)
same,"IGA Score ≤2 (‘Mild’or better), subjects (%)",[2],(85.7%)
same,"IGA Score = 0 (‘Cleared’) or 1 (‘Minimal’), subjects (%)","Week 28, 25 mg BID, N=41",(41.5%)
same,"IGA Score = 0 (‘Cleared’), subjects (%)","Week 28, 25 mg BID, N=41",(19.5%)
same,"IGA Score ≤2 (‘Mild’or better), subjects (%)","Week 28, 25 mg BID, N=41",(73.2%)
same,"IGA Score = 0 (‘Cleared’) or 1 (‘Minimal’), subjects (%)","Week 28, 25 mg QD, N=43",(37.2%)
same,"IGA Score = 0 (‘Cleared’), subjects (%)","Week 28, 25 mg QD, N=43",(18.6%)
same,"IGA Score ≤2 (‘Mild’or better), subjects (%)","Week 28, 25 mg QD, N=43",(65.1%)
same,"IGA Score = 0 (‘Cleared’) or 1 (‘Minimal’), subjects (%)","Week 28, 50 mg QD, N=43",(62.8%)
same,"IGA Score = 0 (‘Cleared’), subjects (%)","Week 28, 50 mg QD, N=43",(16.3%)
same,"IGA Score ≤2 (‘Mild’or better), subjects (%)","Week 28, 50 mg QD, N=43",(76.7%)
same,"IGA Score = 0 (‘Cleared’) or 1 (‘Minimal’), subjects (%)","Week 28, 100 mg BID, N=42",(64.3%)
same,"IGA Score = 0 (‘Cleared’), subjects (%)","Week 28, 100 mg BID, N=42",(42.9%)
same,"IGA Score ≤2 (‘Mild’or better), subjects (%)","Week 28, 100 mg BID, N=42",(78.6%)
same,"IGA Score = 0 (‘Cleared’) or 1 (‘Minimal’), subjects (%)","Week 28, 100 mg QD, N=43",(62.8%)
same,"IGA Score = 0 (‘Cleared’), subjects (%)","Week 28, 100 mg QD, N=43",(25.6%)
same,"IGA Score ≤2 (‘Mild’or better), subjects (%)","Week 28, 100 mg QD, N=43",(74.4%)
same,"IGA Score = 0 (‘Cleared’) or 1 (‘Minimal’), subjects (%)",[3],(60.0%)
same,"IGA Score = 0 (‘Cleared’), subjects (%)",[3],(17.1%)
same,"IGA Score ≤2 (‘Mild’or better), subjects (%)",[3],(85.7%)
same,"IGA Score = 0 (‘Cleared’) or 1 (‘Minimal’), subjects (%)","Week 32, 25 mg BID, N=41",(46.3%)
same,"IGA Score = 0 (‘Cleared’), subjects (%)","Week 32, 25 mg BID, N=41",(22.0%)
same,"IGA Score ≤2 (‘Mild’or better), subjects (%)","Week 32, 25 mg BID, N=41",(73.2%)
same,"IGA Score = 0 (‘Cleared’) or 1 (‘Minimal’), subjects (%)","Week 32, 25 mg QD, N=43",(39.5%)
same,"IGA Score = 0 (‘Cleared’), subjects (%)","Week 32, 25 mg QD, N=43",(18.6%)
same,"IGA Score ≤2 (‘Mild’or better), subjects (%)","Week 32, 25 mg QD, N=43",(60.5%)
same,"IGA Score = 0 (‘Cleared’) or 1 (‘Minimal’), subjects (%)","Week 32, 50 mg QD, N=43",(58.1%)
same,"IGA Score = 0 (‘Cleared’), subjects (%)","Week 32, 50 mg QD, N=43",(30.2%)
same,"IGA Score ≤2 (‘Mild’or better), subjects (%)","Week 32, 50 mg QD, N=43",(79.1%)
same,"IGA Score = 0 (‘Cleared’) or 1 (‘Minimal’), subjects (%)","Week 32, 100 mg BID, N=42",(66.7%)
same,"IGA Score = 0 (‘Cleared’), subjects (%)","Week 32, 100 mg BID, N=42",(40.5%)
same,"IGA Score ≤2 (‘Mild’or better), subjects (%)","Week 32, 100 mg BID, N=42",(78.6%)
same,"IGA Score = 0 (‘Cleared’) or 1 (‘Minimal’), subjects (%)","Week 32, 100 mg QD, N=43",(67.4%)
same,"IGA Score = 0 (‘Cleared’), subjects (%)","Week 32, 100 mg QD, N=43",(25.6%)
same,"IGA Score ≤2 (‘Mild’or better), subjects (%)","Week 32, 100 mg QD, N=43",(76.7%)
same,"IGA Score = 0 (‘Cleared’) or 1 (‘Minimal’), subjects (%)",[4],(65.7%)
same,"IGA Score = 0 (‘Cleared’), subjects (%)",[4],(20.0%)
same,"IGA Score ≤2 (‘Mild’or better), subjects (%)",[4],(80.0%)
same,"IGA Score = 0 (‘Cleared’) or 1 (‘Minimal’), subjects (%)","Week 40, 25 mg BID, N=41",(31.7%)
same,"IGA Score = 0 (‘Cleared’), subjects (%)","Week 40, 25 mg BID, N=41",(17.1%)
same,"IGA Score ≤2 (‘Mild’or better), subjects (%)","Week 40, 25 mg BID, N=41",(68.3%)
same,"IGA Score = 0 (‘Cleared’) or 1 (‘Minimal’), subjects (%)","Week 40, 25 mg QD, N=43",(41.9%)
same,"IGA Score = 0 (‘Cleared’), subjects (%)","Week 40, 25 mg QD, N=43",(11.6%)
same,"IGA Score ≤2 (‘Mild’or better), subjects (%)","Week 40, 25 mg QD, N=43",(67.4%)
same,"IGA Score = 0 (‘Cleared’) or 1 (‘Minimal’), subjects (%)","Week 40, 50 mg QD, N=43",(58.1%)
same,"IGA Score = 0 (‘Cleared’), subjects (%)","Week 40, 50 mg QD, N=43",(23.3%)
same,"IGA Score ≤2 (‘Mild’or better), subjects (%)","Week 40, 50 mg QD, N=43",(79.1%)
same,"IGA Score = 0 (‘Cleared’) or 1 (‘Minimal’), subjects (%)","Week 40, 100 mg BID, N=42",(66.7%)
same,"IGA Score = 0 (‘Cleared’), subjects (%)","Week 40, 100 mg BID, N=42",(40.5%)
same,"IGA Score ≤2 (‘Mild’or better), subjects (%)","Week 40, 100 mg BID, N=42",(78.6%)
same,"IGA Score = 0 (‘Cleared’) or 1 (‘Minimal’), subjects (%)","Week 40, 100 mg QD, N=43",(65.1%)
same,"IGA Score = 0 (‘Cleared’), subjects (%)","Week 40, 100 mg QD, N=43",(27.9%)
same,"IGA Score ≤2 (‘Mild’or better), subjects (%)","Week 40, 100 mg QD, N=43",(69.8%)
same,"IGA Score = 0 (‘Cleared’) or 1 (‘Minimal’), subjects (%)",[5],(57.1%)
same,"IGA Score = 0 (‘Cleared’), subjects (%)",[5],(31.4%)
same,"IGA Score ≤2 (‘Mild’or better), subjects (%)",[5],(74.3%)
same,"IGA Score = 0 (‘Cleared’) or 1 (‘Minimal’), subjects (%)","Week 52, 25 mg BID, N=41",(46.3%)
same,"IGA Score = 0 (‘Cleared’), subjects (%)","Week 52, 25 mg BID, N=41",(19.5%)
same,"IGA Score ≤2 (‘Mild’or better), subjects (%)","Week 52, 25 mg BID, N=41",(63.4%)
same,"IGA Score = 0 (‘Cleared’) or 1 (‘Minimal’), subjects (%)","Week 52, 25 mg QD, N=43",(37.2%)
same,"IGA Score = 0 (‘Cleared’), subjects (%)","Week 52, 25 mg QD, N=43",(14.0%)
same,"IGA Score ≤2 (‘Mild’or better), subjects (%)","Week 52, 25 mg QD, N=43",(55.8%)
same,"IGA Score = 0 (‘Cleared’) or 1 (‘Minimal’), subjects (%)","Week 52, 50 mg QD, N=43",(60.5%)
same,"IGA Score = 0 (‘Cleared’), subjects (%)","Week 52, 50 mg QD, N=43",(23.3%)
same,"IGA Score ≤2 (‘Mild’or better), subjects (%)","Week 52, 50 mg QD, N=43",(79.1%)
same,"IGA Score = 0 (‘Cleared’) or 1 (‘Minimal’), subjects (%)","Week 52, 100 mg BID, N=42",(73.8%)
same,"IGA Score = 0 (‘Cleared’), subjects (%)","Week 52, 100 mg BID, N=42",(42.9%)
same,"IGA Score ≤2 (‘Mild’or better), subjects (%)","Week 52, 100 mg BID, N=42",(76.2%)
same,"IGA Score = 0 (‘Cleared’) or 1 (‘Minimal’), subjects (%)","Week 52, 100 mg QD, N=43",(60.5%)
same,"IGA Score = 0 (‘Cleared’), subjects (%)","Week 52, 100 mg QD, N=43",(30.2%)
same,"IGA Score ≤2 (‘Mild’or better), subjects (%)","Week 52, 100 mg QD, N=43",(67.4%)
same,"IGA Score = 0 (‘Cleared’) or 1 (‘Minimal’), subjects (%)",[6],(65.7%)
same,"IGA Score = 0 (‘Cleared’), subjects (%)",[6],(31.4%)
same,"IGA Score ≤2 (‘Mild’or better), subjects (%)",[6],(77.1%)
